In patent US20060111305A1, “Metabolites of certain [1,4]diazepino[6,7,1-ij]quinoline derivatives and methods of preparation and use thereof” (Wyeth, priority 2004, published 2006):
Values joined by “and” are separate entries in the source; they are usually repeats but may differ in a detail not shown here. Equal entries are not always repeated. Where two headings read alike, the source gives them in different places.

Assays:
[1] = Concentrations of DCDQ and DCDQ carbamoyl glucuronide (M6) in human plasma, LC/SRM (Table 34); format: in vivo, healthy human subjects; conditions: plasma, plasma; for concentration at 6 h / concentration at 12 h / concentration at 24 h: human, oral, read-out: DCDQ concentration in plasma
Protocol: Drug administration and specimen collection were performed in a randomized, double-blinded, placebo-controlled, ascending single dose study of the safety, tolerability, pharmacokinetics, and pharmacodynamics of DCDQ administered orally to healthy subjects and subjects with schizophrenia and schizoaffective disorder. The specimens were stored at approximately −70° C. until analysis for metabolite profiles and for ratios of carbamoyl glucuronide (M6) to DCDQ.
Plasma samples from fasted subjects 25, 28 and 30 in the 50 mg single dose group, fasted subjects 50, 51, 54 in the 200 mg single dose group, fasted subjects 74, 76, 79 in the 300 mg single dose group, fed subjects 83, 84, 86 in the 300 mg single dose group and fasted subjects 92, 94, 96 in the 500 mg single dose group were analyzed for DCDQ carbamoyl glucuronide (M6) concentrations. The internal standard d8-DCDQ (25 μL of 200 ng/mL methanol solution) was added to 100 μL of the plasma samples, followed by the addition of 300 μL of acetonitrile. The samples were mixed and centrifuged at 14000 rpm in an Eppendorf 5415C centrifuge (Brinkman Instruments Inc., Westbury, N.Y.) for 10 minutes. The supernatant of each sample was transferred to a clean tube and evaporated to dryness under a stream of nitrogen in a TurboVap LV evaporator (Caliper Life Sciences, Hopkinton, Mass.). The residue was reconstituted with 50 μL of methanol followed by the addition of 150 μL of water. The sample was mixed and centrifuged as described above. The supernatant was analyzed by LC/MS/MS analysis. Samples for standard curves were prepared with control plasma spiked with synthetic M6. The concentrations of M6 used for the standard curve ranged from 0 to 2500 ng/mL plasma.
LC/MS System 3 was used for semi-quantitative analysis of metabolite M6 (DCDQ carbamoyl glucuronide) in plasma and urine samples. The HPLC equipment for this LC/MS System consisted of a Thermo Surveyor HPLC (Thermo Electron Corp., San Jose, Calif.), including a Surveyor MS pump and autosampler. Separations were accomplished on a 5 micron Phenomenex Luna C18(2) column, 150×2 mm (Phenomenex, Torrance, Calif.). The autosampler and column temperatures were set at 5° C. and 40° C., respectively. The HPLC mobile phase consisted of 10 mM ammonium acetate (A) and methanol (B), and was delivered at 0.2 mL/min. The linear mobile phase gradient (HPLC Gradient 2) is shown below. During LC/MS sample analysis, up to 3 min of the initial flow was diverted away from the mass spectrometer prior to evaluation of metabolites.
The mass spectrometer used for semi-quantitative anslysis with LC/MS System 3 was a Finnigan TSQ Quantum triple quadrupole mass spectrometer (Thermo Electron Corp.). The mass spectrometer was equipped with an electrospray interface and operated in the positive ionization mode. Settings for this mass spectrometer are listed below.
LC/MS/MS analysis in the selected reaction monitoring (SRM) mode (LC/SRM) was conducted for DCDQ and M6 using the following settings.
The computer program Microsoft Excel® 97 was used to calculate means and standard deviations and to perform the student t-test. Xcalibur (version 1.3) and MassLynx software (version 4.0) were used for collection and analysis of LC/MS data. Peak area ratios of M6 to the internal standard were used for quantitation of M6 in plasma samples.

[2] = dogs; cited from earlier work

Structure (SMILES): c1cc2c3c(c1)[C@H]1CCC[C@H]1CN3CCNC2 [DCDQ, (9aR,12aS)-4,5,6,7,9,9a,10,11,12,12a-decahydro-cyclopenta[c][1,4]diazepine[6,7,1-ij]quinoline, reference compound]
- concentration at 6 h ([1]; 50 mg, 50 mg (fasted), 6 hr, Mean ± S.D.): 2.47 ± 2.21 ng/mL
- concentration at 12 h ([1]; 50 mg, 50 mg (fasted), 12 hr, Mean ± S.D.): 1.2 ± 1.14 ng/mL
- concentration at 24 h ([1]; 50 mg, 50 mg (fasted), 24 hr, Mean (standard deviation not calculated)): 0.4 ng/mL
- concentration at 6 h ([1]; 200 mg, 200 mg (fasted), 6 hr, Mean ± S.D.): 10.9 ± 7.71 ng/mL
- concentration at 12 h ([1]; 200 mg, 200 mg (fasted), 12 hr, Mean ± S.D.): 5.6 ± 4.06 ng/mL
- concentration at 24 h ([1]; 200 mg, 200 mg (fasted), 24 hr, Mean ± S.D.): 1.5 ± 1.15 ng/mL
- concentration at 6 h ([1]; 300 mg, 300 mg (fasted), 6 hr, Mean ± S.D.): 7.45 ± 7.48 ng/mL
- concentration at 12 h ([1]; 300 mg, 300 mg (fasted), 12 hr, Mean ± S.D.): 4.23 ± 3.26 ng/mL
- concentration at 24 h ([1]; 300 mg, 300 mg (fasted), 24 hr, Mean ± S.D.): 1.46 ± 0.43 ng/mL
- concentration at 24 h ([1]; 300 mg, 300 mg (fasted), 24 hr, individual subjects): 0.972 ng/mL
- concentration at 6 h ([1]; 300 mg, 300 mg (fed), 6 hr, Mean ± S.D.): 12 ± 9.39 ng/mL
- concentration at 12 h ([1]; 300 mg, 300 mg (fed), 12 hr, Mean ± S.D.): 8.31 ± 2.47 ng/mL
- concentration at 12 h ([1]; 300 mg, 300 mg (fed), 12 hr, individual subjects): 10.9 ng/mL
- concentration at 24 h ([1]; 300 mg, 300 mg (fed), 24 hr, Mean ± S.D.): 2.15 ± 0.86 ng/mL
- concentration at 6 h ([1]; 500 mg, 500 mg (fasted), 6 hr, Mean ± S.D.): 32.1 ± 12.2 ng/mL
- concentration at 12 h ([1]; 500 mg, 500 mg (fasted), 12 hr, Mean ± S.D.): 19.4 ± 6.56 ng/mL
- concentration at 24 h ([1]; 500 mg, 500 mg (fasted), 24 hr, Mean ± S.D.): 5.45 ± 1.47 ng/mL
- concentration at 24 h ([1]; 500 mg, 500 mg (fasted), 24 hr, individual subjects): 5.53 ng/mL
- DCDQ concentration in plasma ([1]; 50 mg (fasted), 6 hr, individual subjects): 0.9 ng/mL and 5.0 ng/mL
- DCDQ concentration in plasma ([1]; 50 mg (fasted), 12 hr, individual subjects): 0.7 ng/mL and 0.4 ng/mL and 2.5 ng/mL
- DCDQ concentration in plasma ([1]; 50 mg (fasted), 24 hr, individual subjects): 0.2 ng/mL and 0.6 ng/mL
- DCDQ concentration in plasma ([1]; 200 mg (fasted), 6 hr, individual subjects): 2.7 ng/mL and 18.0 ng/mL and 12.0 ng/mL
- DCDQ concentration in plasma ([1]; 200 mg (fasted), 12 hr, individual subjects): 1.2 ng/mL and 9.2 ng/mL and 6.4 ng/mL
- DCDQ concentration in plasma ([1]; 200 mg (fasted), 24 hr, individual subjects): 0.3 ng/mL and 2.6 ng/mL and 1.6 ng/mL
- DCDQ concentration in plasma ([1]; 300 mg (fasted), 6 hr, individual subjects): 2.09 ng/mL and 4.27 ng/mL and 16.0 ng/mL
- DCDQ concentration in plasma ([1]; 300 mg (fasted), 12 hr, individual subjects): 1.50 ng/mL and 3.34 ng/mL and 7.84 ng/mL
- DCDQ concentration in plasma ([1]; 300 mg (fasted), 24 hr, individual subjects): 1.72 ng/mL and 1.70 ng/mL
- DCDQ concentration in plasma ([1]; 300 mg (fed), 6 hr, individual subjects): 19.0 ng/mL and 15.6 ng/mL and 1.30 ng/mL
- DCDQ concentration in plasma ([1]; 300 mg (fed), 12 hr, individual subjects): 8.06 ng/mL and 5.97 ng/mL
- DCDQ concentration in plasma ([1]; 300 mg (fed), 24 hr, individual subjects): 2.60 ng/mL and 1.15 ng/mL and 2.69 ng/mL
- DCDQ concentration in plasma ([1]; 500 mg (fasted), 6 hr, individual subjects): 44.5 ng/mL and 31.7 ng/mL and 20.2 ng/mL
- DCDQ concentration in plasma ([1]; 500 mg (fasted), 12 hr, individual subjects): 24.5 ng/mL and 21.7 ng/mL and 12.0 ng/mL
- DCDQ concentration in plasma ([1]; 500 mg (fasted), 24 hr, individual subjects): 6.88 ng/mL and 3.95 ng/mL
- oral bioavailability [2]: approximately 25.4%
